Key:
C57BL/6J male mice [1] = experiment: mouse YO-YO test (intermittent endurance capacity, treadmill); format: in vivo; conditions: 6-week-old mice; oral aqueous solution 1 to 2 g/kg; YO-YO test from 30 min after administration; compared to water (negative control); FIG. 1
Method: After ingesting a test substance into 6-week-old C57BL/6J male mice, a mouse YO-YO test was conducted to evaluate an intermittent endurance capacity improving effect of the test substance using the intermittent endurance capacity of each individual as an index. As the test substance, 20 kinds of amino acids (or salts thereof) were used.
Preliminary running was performed on the mice one week before the main test. […] Unable to run was judged when the mouse could not keep up with the running speed. […] Grouping was performed such that the number of running sets and body weight of each individual obtained in the preliminary running were about the same for each group.
In the week following the preliminary running, the mice evaluated for the intermittent endurance capacity were orally administered with an aqueous solution containing a test substance in a dose of 1 to 2 g/kg mouse body weight, or water (negative control) at 20 mL/kg mouse body weight. […] From 30 min after the oral administration, the above-mentioned YO-YO test was performed to evaluate the effect of the test substance on the number of runnable sets of each individual. […]

C57BL/6J male mice [2] = experiment: increase in mouse plasma pH by oral administration; conditions: for blood (plasma) pH increasing effect, time course: 7- to 9-week-old mice, aspartic acid 1 g/kg, blood sampled 30, 60, 120 min after administration, i-STAT, FIGS. 2 and 3

Row | Compound | increase in the number of runnable sets (intermittent endurance capacity improving effect) (C57BL/6J male mice [1]) | blood (plasma) pH increasing effect, time course (C57BL/6J male mice [2]) | time of peak of the pH increasing effect (C57BL/6J male mice [2]; plasma pH, mice, FIG. 2)
1 | N[C@@H](CC(=O)O)C(=O)O [aspartic acid] | significantly increased the number of runnable sets | affords an effect of increasing blood pH even after 0.5 hr to 2 hr from the administration | –
2 | O=C([O-])O.[Na+] [sodium hydrogen carbonate] | – | the pH increasing effect disappeared rapidly thereafter | 0.5 hr
3 | N[C@@H](Cc1ccc(O)cc1)C(=O)O [tyrosine] | significantly increased the number of runnable sets | – | –

From patent publication US12220395B2, “Intermittent endurance capacity improving agent or blood pH elevating agent” (AJINOMOTO CO., INC., priority 2018, dated 2025)
